Test results from PMC8096952, “Similar pharmacokinetics and pharmacodynamics of a new biosimilar and reference insulin aspart in healthy Chinese males” (Scientific Reports, 2021).
Read-outs that look alike come from different tables or passages of the source. Marks after values point to notes of the source that are not given here.

Columns and labels:
[1] = Pharmacokinetics of insulin aspart (plasma IAsp) during euglycemic clamp study; type: in vivo, healthy Chinese males; conditions: for t1/2: healthy Chinese males, single 0.2 U/kg s.c., fasted, plasma IAsp by UPLC-MS/MS, arithmetic mean (SD), N = 30; for Tmax: sc
Text: (§1) There was a phase I, single-site, randomized, single-dose, two-period, crossover, euglycemic clamp study, evaluating the similarity in PK and PD of two IAsp products in healthy subjects (a new IAsp biosimilar RD10046 by HEC Pharm vs. NovoRapid by Novo Nordisk). In this study, subjects were randomly allocated to one of two treatment sequences (Fig. 1), in which they received 0.2 units/kg s.c. doses of two different IAsp products (as listed above) on two occasions.
(§2) Subjects were admitted to the phrase I unit on day-1 of each treatment period. On day 1, subjects received a single dose of the IAsp biosimilar RD10046 or NovoRapid after an overnight fast of at least 10 h, and a euglycemic clamp procedure that lasted up to 10 h postdose was performed. Subjects were discharged when they had had carbohydrates at the end of the euglycemic clamp. An interval of 7–14 days existed between the two doses.
(§3) The euglycemic clamp study was performed after inserting two catheters (an antecubital venous catheter for infusing 20% dextrose and a retrograde venous catheter in the hand heated in a box at 55–65℃ for measuring blood glucose). After collecting the basal blood glucose level [defined as the mean of the glucose measurement of several times (− 60, − 30, − 20, − 10 min) before dosing], the subjects received a 0.2 U/kg dose of NovoRapid or RD10046 by s.c. injection into a lifted abdominal skin-fold. Blood samples were obtained at the bedside for immediate determination of whole blood glucose concentrations and then monitored every 5 min from 0 to 240 min and every 10 min from 240 to 600 min after dosing. During the euglycemic clamp, the GIR was varied as necessary to maintain the blood glucose concentration within approximately ± 10% of the target level (defined as 0.28 mmol/L below the subject’s basal glucose level). The investigator made the GIR adjustment based on glucose measurements and experience. If the GIR fell to zero for at least 30 min, the clamp was discontinued. A 4-mL blood sample was collected at the following points for analysis of C-peptide and IAsp concentration: − 30, 0 (before dosing), 10, 20, 30, 40, 50, 60, 90, 120, 150, 180, 210, 240, 270, 300, 360, 420, 480 and 600 min. The baseline of C-peptide was defined as the mean value of two measurements at − 30 and 0 min.
(§4) Whole blood glucose concentrations were tested with a glucose analyzer (Biosen C_line GP+, Neckar Healthcare. Co. Ltd., Magdeburg, Germany) using an automated glucose oxidase technique. Serum C-peptide levels were analyzed using an ELISA (Cat. No. 80‐CPTHU‐E01.1; ALPCO, Salem, NH), and plasma IAsp concentrations were assessed by means of a validated, ultra-performance liquid chromatography-tandem mass spectrometry (UPLC-MS/MS) method at Covance Laboratories in Shanghai. The ranges of quantification were 20–3000 pmol/L for C-peptide and 0.2–10 ng/mL for IAsp.
The primary endpoint parameters of PK were shown as follows derived from time-profiles of IAsp: (1) maximal concentration of IAsp (Cmax), (2) the AUC of IAsp from 0 to 10 h (AUCIAsp, 0-10h). The time of Cmax (Tmax) and terminal half-life (t1/2) were also recorded. Those parameters mentioned above were calculated by PKsolver (version 2.0)[26]. Log-transformed AUCIAsp,0–10h and Cmax were evaluated with a linear mixed-effects model including subject as a random effect with the period, sequence, and treatment as fixed effects. For each parameter, the difference in the LS means along with the 90% CIs was back-transformed to produce the ratio of geometric means and the CI comparing treatments. The pharmacokinetic similarity was to be concluded if the 90% CIs for both AUCIAsp,0–10h and Cmax were completely contained within the interval of 0.80–1.25.
(§5) Time-related PK/PD parameters were evaluated by a nonparametric approach based on the Hodges-Lehmann method.

healthy Chinese males [2] = test: Euglycemic clamp pharmacodynamics (glucose infusion rate); type: in vivo; conditions: for Tearly,50% (time of half-maximum GIR before GIRmax) / Tlate,50% (time of half-maximum GIR after GIRmax) / Tonset (first time of blood glucose declining to target level, 0.28 mmol/L less than baseline) / tGIRmax (time of maximum glucose infusion rate) / AUCGIR,0–10h (total glucose infusion during the clamp) / GIRmax (maximum glucose infusion rate): healthy Chinese males, single 0.2 U/kg s.c., 10-h euglycemic clamp, N = 29 RD10046, 30 NovoRapid; for AUCGIR,0–10h (total glucose infusion during the clamp) / GIRmax (maximum glucose infusion rate): fasted, LOESS-smoothed GIR
Text: as §1, §2, §3, §4
GIR profiles were smoothed by a locally weighted regression technique (LOESS, factor 0.10) using SAS software (version 9.4). The primary glucose-lowing effectiveness endpoints were the following parameters derived from the smoothed GIR profiles during the time interval from 0 to 10 h: (1) maximal GIR (GIRmax), (2) AUC of GIR from 0 to 10 h (AUCGIR, 0–10h). The time-related parameters including the time of GIRmax (tGIRmax), the onset of time (Tonset) (defined as the first time when BG declining at least 0.28 mmol/L from baseline), the time for GIR to rise from 0 to half of GIRmax (Tearly50%), and the time for GIR to decline from GIRmax to half of GIRmax (Tlate50%) were also recorded. A similar analysis was performed for GIRmax and AUCGIR, 0–10h.
as §5

C-peptide = test: Serum C-peptide during euglycemic clamp (endogenous insulin secretion); type: in vivo; conditions: healthy Chinese males, single 0.2 U/kg s.c., 10-h euglycemic clamp, ELISA, mean ± SD, N = 30
Procedure: The euglycemic clamp study was performed after inserting two catheters (an antecubital venous catheter for infusing 20% dextrose and a retrograde venous catheter in the hand heated in a box at 55–65℃ for measuring blood glucose). After collecting the basal blood glucose level [defined as the mean of the glucose measurement of several times (− 60, − 30, − 20, − 10 min) before dosing], the subjects received a 0.2 U/kg dose of NovoRapid or RD10046 by s.c. injection into a lifted abdominal skin-fold. Blood samples were obtained at the bedside for immediate determination of whole blood glucose concentrations and then monitored every 5 min from 0 to 240 min and every 10 min from 240 to 600 min after dosing. […]
as §4

healthy Chinese males [3] = test: Safety evaluation (treatment-emergent adverse events); type: in vivo; conditions: all causalities, single 0.2 U/kg s.c., N = 30
Text: The safety assessments included the vital signs, physical examination, laboratory tests (complete blood cell count, liver and renal function, urinalysis, etc.), 12-lead ECG, injection site reaction, hypoglycemia, and other AEs.

[4] = in vivo; cited from earlier work
Text: (§6) The maximum observed drug concentration and total drug exposure were higher than those in the previous report, which might ...

healthy Chinese males [5] = conditions: previous reports; cited from earlier work
Text: as §6

Row | Substance | t1/2 [1] | Tmax ([1]; in vivo) | Tearly,50% (time of half-maximum GIR before GIRmax) (healthy Chinese males [2]; geometric mean (CV %)) | Tlate,50% (time of half-maximum GIR after GIRmax) (healthy Chinese males [2]; geometric mean (CV %)) | Tonset (first time of blood glucose declining to target level, 0.28 mmol/L less than baseline) (healthy Chinese males [2]; geometric mean (CV %)) | tGIRmax (time of maximum glucose infusion rate) (healthy Chinese males [2]; geometric mean (CV %)) | AUCGIR,0–10h (total glucose infusion during the clamp) (healthy Chinese males [2]; arithmetic mean) [mg/kg] | GIRmax (maximum glucose infusion rate) (healthy Chinese males [2]; arithmetic mean) [mg/kg/min] | AUCGIR,0–10h (total glucose infusion during the clamp) (healthy Chinese males [2]; geometric mean (CV %)) | GIRmax (maximum glucose infusion rate) (healthy Chinese males [2]; geometric mean (CV %)) | C-peptide suppression after injection (reduction from baseline) (C-peptide) [%] | other results
1 | insulin aspart [NovoRapid] | 38.0 (9.38) min | 50.2 (30.2,75.3) min | 38 (22) min | 226 (17) min | 15 (23) min | 104 (26) min | 1594 | 7.84 | 1542 (27) mg/kg | 7.64 (22) mg/kg/min | 30.7 ± 13.3 | TEAE Blood bilirubin increased: number of AEs (number of subjects with AEs) (healthy Chinese males [3]): 1 (1); Tmax [4]: 48 to 70 min; GIRmax (healthy Chinese males [5]): 6 to 9 mg/kg/min; total glucose infusion (healthy Chinese males [5]): 1300 to 1500 mg/kg
2 | insulin aspart [RD10046] | 39.2 (13.1) min | 50.3 (20.4,60.9) min | 38 (21) min | 227 (21) min | 16 (28) min | 113 (33) min | 1558 | 7.65 | 1493 (31) mg/kg | 7.44 (23) mg/kg/min | 30.2 ± 14.7 | AUCIAsp,0–10h, ratio of LS means (RD10046 divided by NovoRapid) ([1]; in vivo): 1.02^a; AUCIAsp,0–∞, ratio of LS means (RD10046 divided by NovoRapid) ([1]; in vivo): 1.02; Cmax, ratio of LS means (RD10046 divided by NovoRapid) ([1]; in vivo): 1.01^a; AUCGIR,0–10h, ratio of LS means (RD10046 divided by NovoRapid) (healthy Chinese males [2]; 90% CI in next column): 0.97^a; GIRmax, ratio of LS means (RD10046 divided by NovoRapid) (healthy Chinese males [2]; 90% CI in next column): 0.98^a; Tearly,50%, difference between medians (RD10046 - NovoRapid) (healthy Chinese males [2]; Hodges-Lehmann method): 0.13^b min; Tlate,50%, difference between medians (RD10046 - NovoRapid) (healthy Chinese males [2]; Hodges-Lehmann method): 0.39^b min; Tonset, difference between medians (RD10046 - NovoRapid) (healthy Chinese males [2]; Hodges-Lehmann method): 0^b min; tGIRmax, difference between medians (RD10046 - NovoRapid) (healthy Chinese males [2]; Hodges-Lehmann method): 15^b min; TEAE Electrocardiogram high voltage: number of AEs (number of subjects with AEs) (healthy Chinese males [3]): 1 (1); TEAE Hyperuricemia: number of AEs (number of subjects with AEs) (healthy Chinese males [3]): 1 (1); TEAE Induration: number of AEs (number of subjects with AEs) (healthy Chinese males [3]): 1 (1); TEAE Pain in extremity: number of AEs (number of subjects with AEs) (healthy Chinese males [3]): 1 (1); TEAE Platelet count increased: number of AEs (number of subjects with AEs) (healthy Chinese males [3]): 1 (1); TEAE Refraction disorder: number of AEs (number of subjects with AEs) (healthy Chinese males [3]): 1 (1)
